According to patent publication US9603849B2, “Uses of orvepitant” (NERRE THERAPEUTICS LIMITED, priority 2012, dated 2017):

Target: NK-1 receptor (Meriones unguiculatus, UniProt Q5DUB1)
Experiment: GR73632-induced hindlimb scratching behaviour in the Mongolian gerbil
Type: in vivo
Settings: mean ± s.e.m.
Source text: 5) Particularly the antipruritic effect of orvepitant maleate was determinated in GR73632-induced scratching behaviour in the Mongolian gerbil. According to this metholody the scratching behaviour was induced by GR73632 which is a specific agonist of the NK-1 receptor.
72 male Mongolian gerbils (58-78 g) after a minimum habituation period of 10 days prior to study commencement, were acclimatised to the procedure room in their home cages, with food and water available ad libitum. The day before the experiment was due to commence a 1 cm×1 cm squared area between the shoulder blades was shaved free of hair.
Habituation to the apparatus (custom made observation chambers; approximately 30×30 cm; 2 animals per observation) took place 30 minutes prior to induction of scratching behaviours using GR73632.
A 10 mg/kg stock solution of orvepitant maleate was made by dissolving 20 mg of orvepitant maleate Form 1 in 20 mls of vehicle (5% DMSO & 95% HPMC (0.5%)). This stock solution was serially diluted to prepare doses of 0.1, 0.3, 1.0, 3.0 or 10 mg/kg orvepitant maleate.
At T=−60 mins mongolian gerbils were dosed with orvepitant maleate (0.1, 0.3, 1.0, 3.0 or, 10 mg/kg p.o.). Gerbils were allocated to dosing groups based on a Latin square design. 30 Minutes later (T=−30 mins) gerbils were placed into the observation chamber for 30 minutes habituation. At T=0 Gerbils were then dosed with GR73632 (30 nmol/100 uL; i.d.) between the shoulder blades and their subsequent hindlimb scratching behaviour recorded using GeoVision surveillance software over a 30 minute period.
Playing back of the video served for counting scratching behaviour. […] Cumulative frequency and duration (secs) of scratching was scored in 5 min epochs. Treatment groups were randomised based on a Latin Square design. The experimenter was blinded to the treatment groups.
Repeated measures ANOVA followed by Planned comparison test using GraphPad Prism. (p<0.05 considered significant). Data were analysed by comparing treatment groups to control group at each time point.

Chain of NK-1 receptor (Q5DUB1 whole entry): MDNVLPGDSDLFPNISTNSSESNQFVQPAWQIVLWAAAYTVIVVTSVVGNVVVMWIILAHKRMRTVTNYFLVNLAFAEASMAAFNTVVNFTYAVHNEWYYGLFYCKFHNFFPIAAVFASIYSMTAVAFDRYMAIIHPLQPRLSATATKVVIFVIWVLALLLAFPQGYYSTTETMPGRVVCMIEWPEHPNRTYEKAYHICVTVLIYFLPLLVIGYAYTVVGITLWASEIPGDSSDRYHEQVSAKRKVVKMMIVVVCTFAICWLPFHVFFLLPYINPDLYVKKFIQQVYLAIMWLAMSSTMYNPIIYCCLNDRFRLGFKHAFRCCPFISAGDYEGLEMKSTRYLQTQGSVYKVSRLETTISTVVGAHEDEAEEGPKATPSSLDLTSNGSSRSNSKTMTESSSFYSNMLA

Cumulative duration of hindlimb scratching (0.1 mg/kg p.o., 0-5 mins after GR73632 i.d., vehicle 5.35 ± 1.37): NS 2.76 ± 0.71 secs | Cumulative frequency of hindlimb scratching (0.1 mg/kg p.o., 0-5 mins after GR73632 i.d., vehicle 7.75 ± 2.18): NS4.08 ± 1.45 | Cumulative duration of hindlimb scratching (0.1 mg/kg p.o., 5-10 mins after GR73632 i.d., vehicle 11.71 ± 1.93): **4.20 ± 0.85 secs | Cumulative frequency of hindlimb scratching (0.1 mg/kg p.o., 5-10 mins after GR73632 i.d., vehicle 14.41 ± 2.49): **5.83 ± 1.55 | Cumulative duration of hindlimb scratching (0.1 mg/kg p.o., 10-15 mins after GR73632 i.d., vehicle 16.54 ± 2.58): ***5.96 ± 1.16 secs | Cumulative frequency of hindlimb scratching (0.1 mg/kg p.o., 10-15 mins after GR73632 i.d., vehicle 20.25 ± 2.97): ***7.91 ± 1.74 | Cumulative duration of hindlimb scratching (0.1 mg/kg p.o., 15-20 mins after GR73632 i.d., vehicle 20.08 ± 2.83): ***7.86 ± 1.67 secs | Cumulative frequency of hindlimb scratching (0.1 mg/kg p.o., 15-20 mins after GR73632 i.d., vehicle 24.33 ± 3.22): ***9.66 ± 1.92 | Cumulative duration of hindlimb scratching (0.1 mg/kg p.o., 20-25 mins after GR73632 i.d., vehicle 23.19 ± 2.80): ***8.99 ± 2.09 secs | Cumulative frequency of hindlimb scratching (0.1 mg/kg p.o., 20-25 mins after GR73632 i.d., vehicle 28.25 ± 3.26): ***10.91 ± 2.07 | Cumulative duration of hindlimb scratching (0.1 mg/kg p.o., 25-30 mins after GR73632 i.d., vehicle 25.69 ± 3.026): ***9.67 ± 2.14 secs | Cumulative frequency of hindlimb scratching (0.1 mg/kg p.o., 25-30 mins after GR73632 i.d., vehicle 32.00 ± 3.60): ***11.58 ± 2.12 | Cumulative duration of hindlimb scratching (0.3 mg/kg p.o., 0-5 mins after GR73632 i.d., vehicle 5.35 ± 1.37): NS 2.06 ± 0.62 secs | Cumulative frequency of hindlimb scratching (0.3 mg/kg p.o., 0-5 mins after GR73632 i.d., vehicle 7.75 ± 2.18): NS3.00 ± 0.88 | Cumulative duration of hindlimb scratching (0.3 mg/kg p.o., 5-10 mins after GR73632 i.d., vehicle 11.71 ± 1.93): **3.50 ± 0.88 secs | Cumulative frequency of hindlimb scratching (0.3 mg/kg p.o., 5-10 mins after GR73632 i.d., vehicle 14.41 ± 2.49): ***4.91 ± 1.15 | Cumulative duration of hindlimb scratching (0.3 mg/kg p.o., 10-15 mins after GR73632 i.d., vehicle 16.54 ± 2.58): ***5.86 ± 1.44 secs | Cumulative frequency of hindlimb scratching (0.3 mg/kg p.o., 10-15 mins after GR73632 i.d., vehicle 20.25 ± 2.97): ***7.50 ± 1.56 | Cumulative duration of hindlimb scratching (0.3 mg/kg p.o., 15-20 mins after GR73632 i.d., vehicle 20.08 ± 2.83): ***7.09 ± 1.63 secs | Cumulative frequency of hindlimb scratching (0.3 mg/kg p.o., 15-20 mins after GR73632 i.d., vehicle 24.33 ± 3.22): ***8.66 ± 1.61 | Cumulative duration of hindlimb scratching (0.3 mg/kg p.o., 20-25 mins after GR73632 i.d., vehicle 23.19 ± 2.80): ***8.58 ± 1.93 secs | Cumulative frequency of hindlimb scratching (0.3 mg/kg p.o., 20-25 mins after GR73632 i.d., vehicle 28.25 ± 3.26): ***10.00 ± 1.62 | Cumulative duration of hindlimb scratching (0.3 mg/kg p.o., 25-30 mins after GR73632 i.d., vehicle 25.69 ± 3.026): ***10.27 ± 2.17 secs | Cumulative frequency of hindlimb scratching (0.3 mg/kg p.o., 25-30 mins after GR73632 i.d., vehicle 32.00 ± 3.60): ***11.75 ± 1.90 | Cumulative duration of hindlimb scratching (1.0 mg/kg p.o., 0-5 mins after GR73632 i.d., vehicle 5.35 ± 1.37): NS 2.74 ± 1.06 secs | Cumulative frequency of hindlimb scratching (1.0 mg/kg p.o., 0-5 mins after GR73632 i.d., vehicle 7.75 ± 2.18): NS3.75 ± 1.30 | Cumulative duration of hindlimb scratching (1.0 mg/kg p.o., 5-10 mins after GR73632 i.d., vehicle 11.71 ± 1.93): **4.51 ± 1.05 secs | Cumulative frequency of hindlimb scratching (1.0 mg/kg p.o., 5-10 mins after GR73632 i.d., vehicle 14.41 ± 2.49): **5.91 ± 1.25 | Cumulative duration of hindlimb scratching (1.0 mg/kg p.o., 10-15 mins after GR73632 i.d., vehicle 16.54 ± 2.58): ***4.92 ± 1.13 secs | Cumulative frequency of hindlimb scratching (1.0 mg/kg p.o., 10-15 mins after GR73632 i.d., vehicle 20.25 ± 2.97): ***6.41 ± 1.29 | Cumulative duration of hindlimb scratching (1.0 mg/kg p.o., 15-20 mins after GR73632 i.d., vehicle 20.08 ± 2.83): ***6.02 ± 1.28 secs | Cumulative frequency of hindlimb scratching (1.0 mg/kg p.o., 15-20 mins after GR73632 i.d., vehicle 24.33 ± 3.22): ***8.00 ± 1.39 | Cumulative duration of hindlimb scratching (1.0 mg/kg p.o., 20-25 mins after GR73632 i.d., vehicle 23.19 ± 2.80): ***7.48 ± 1.55 secs | Cumulative frequency of hindlimb scratching (1.0 mg/kg p.o., 20-25 mins after GR73632 i.d., vehicle 28.25 ± 3.26): ***9.66 ± 1.71 | Cumulative duration of hindlimb scratching (1.0 mg/kg p.o., 25-30 mins after GR73632 i.d., vehicle 25.69 ± 3.026): ***10.00 ± 2.17 secs | Cumulative frequency of hindlimb scratching (1.0 mg/kg p.o., 25-30 mins after GR73632 i.d., vehicle 32.00 ± 3.60): ***12.08 ± 2.25 | Cumulative duration of hindlimb scratching (3.0 mg/kg p.o., 0-5 mins after GR73632 i.d., vehicle 5.35 ± 1.37): NS 0.96 ± 0.32 secs | Cumulative frequency of hindlimb scratching (3.0 mg/kg p.o., 0-5 mins after GR73632 i.d., vehicle 7.75 ± 2.18): NS1.58 ± 0.46 | Cumulative duration of hindlimb scratching (3.0 mg/kg p.o., 5-10 mins after GR73632 i.d., vehicle 11.71 ± 1.93): ***1.30 ± 0.38 secs | Cumulative frequency of hindlimb scratching (3.0 mg/kg p.o., 5-10 mins after GR73632 i.d., vehicle 14.41 ± 2.49): ***2.16 ± 0.58 | Cumulative duration of hindlimb scratching (3.0 mg/kg p.o., 10-15 mins after GR73632 i.d., vehicle 16.54 ± 2.58): ***1.79 ± 0.39 secs | Cumulative frequency of hindlimb scratching (3.0 mg/kg p.o., 10-15 mins after GR73632 i.d., vehicle 20.25 ± 2.97): ***2.83 ± 0.57 | Cumulative duration of hindlimb scratching (3.0 mg/kg p.o., 15-20 mins after GR73632 i.d., vehicle 20.08 ± 2.83): ***2.415 ± 0.47 secs | Cumulative frequency of hindlimb scratching (3.0 mg/kg p.o., 15-20 mins after GR73632 i.d., vehicle 24.33 ± 3.22): ***3.66 ± 0.64 | Cumulative duration of hindlimb scratching (3.0 mg/kg p.o., 20-25 mins after GR73632 i.d., vehicle 23.19 ± 2.80): ***2.59 ± 0.50 secs | Cumulative frequency of hindlimb scratching (3.0 mg/kg p.o., 20-25 mins after GR73632 i.d., vehicle 28.25 ± 3.26): ***4.00 ± 0.67 | Cumulative duration of hindlimb scratching (3.0 mg/kg p.o., 25-30 mins after GR73632 i.d., vehicle 25.69 ± 3.026): ***3.09 ± 0.61 secs | Cumulative frequency of hindlimb scratching (3.0 mg/kg p.o., 25-30 mins after GR73632 i.d., vehicle 32.00 ± 3.60): ***4.58 ± 0.76 | Cumulative duration of hindlimb scratching (10.0 mg/kg p.o., 0-5 mins after GR73632 i.d., vehicle 5.35 ± 1.37): NS 0.57 ± 0.29 secs | Cumulative frequency of hindlimb scratching (10.0 mg/kg p.o., 0-5 mins after GR73632 i.d., vehicle 7.75 ± 2.18): *0.91 ± 0.43 | Cumulative duration of hindlimb scratching (10.0 mg/kg p.o., 5-10 mins after GR73632 i.d., vehicle 11.71 ± 1.93): ***1.13 ± 0.38 secs | Cumulative frequency of hindlimb scratching (10.0 mg/kg p.o., 5-10 mins after GR73632 i.d., vehicle 14.41 ± 2.49): ***1.66 ± 0.60 | Cumulative duration of hindlimb scratching (10.0 mg/kg p.o., 10-15 mins after GR73632 i.d., vehicle 16.54 ± 2.58): ***2.38 ± 0.78 secs | Cumulative frequency of hindlimb scratching (10.0 mg/kg p.o., 10-15 mins after GR73632 i.d., vehicle 20.25 ± 2.97): ***2.58 ± 0.73 | Cumulative duration of hindlimb scratching (10.0 mg/kg p.o., 15-20 mins after GR73632 i.d., vehicle 20.08 ± 2.83): ***3.22 ± 0.84 secs | Cumulative frequency of hindlimb scratching (10.0 mg/kg p.o., 15-20 mins after GR73632 i.d., vehicle 24.33 ± 3.22): ***3.58 ± 0.73 | Cumulative duration of hindlimb scratching (10.0 mg/kg p.o., 20-25 mins after GR73632 i.d., vehicle 23.19 ± 2.80): ***4.36 ± 1.18 secs | Cumulative frequency of hindlimb scratching (10.0 mg/kg p.o., 20-25 mins after GR73632 i.d., vehicle 28.25 ± 3.26): ***5.00 ± 0.92 | Cumulative duration of hindlimb scratching (10.0 mg/kg p.o., 25-30 mins after GR73632 i.d., vehicle 25.69 ± 3.026): ***5.24 ± 1.35 secs | Cumulative frequency of hindlimb scratching (10.0 mg/kg p.o., 25-30 mins after GR73632 i.d., vehicle 32.00 ± 3.60): ***5.91 ± 1.16
Structure (SMILES): Cc1cc(F)ccc1[C@H]1C[C@@H](N2CCN3C(=O)CC[C@H]3C2)CCN1C(=O)N(C)[C@H](C)c1cc(C(F)(F)F)cc(C(F)(F)F)c1.O=C(O)/C=C\C(=O)O [orvepitant maleate, 2-(R)-(4-Fluoro-2-methyl-phenyl)-4-(S)-((8aS)-6-oxo-hexahydro-pyrrolo[1,2-a]-pyrazin-2-yl)-piperidine-1-carboxylic acid [1-(R)-(3,5-bis-trifluoromethyl-phenyl)-ethyl]-methylamide maleate]
